Assay results published in patent publication US20220041627A1, “PRODRUGS OF ANTI-CANCER AND ANTI-AUTOIMMUNE DISEASES THERAPEUTIC AGENTS, AND METHODS OF MAKING AND USE THEREOF” (UNIVERSITY OF MARYLAND, BALTIMORE, priority 2018, published 2022).
Read-outs that look alike come from different tables or passages of the source.

Key:
[1] = test system: RPMI-8226; experiment: NCI-60 growth inhibition, RPMI-8226; assay type: cell-based, human
Excerpt: (§1) The anticancer effects of compounds 1a-1b against 60 human cancer cell lines (the Developmental Therapeutics Program of NCI) were studied. The cell lines were derived from different cancer types including leukemia, non-small-cell lung cancer, colon cancer, CNS cancer, melanoma, ovarian cancer, renal cancer, prostate cancer, and breast cancer (Table 1; the assay protocol can be found at: https://dtp.cancer.gov/default.htm). Compound 1a caused over 50% growth inhibition for most tested cell lines. […] Without wishing to be bound by any particular theory, it is believed that the differences in the anticancer effects between compounds 1a and 1b may be due to the more favorable cell membrane permeability of the boronic ester 1a.

[2] = test system: 60 human cancer cell lines; experiment: NCI-60 cellular antitumor activity profiling, panel summary; assay type: cell-based; details: 48 h; for inhibition at 50 µM: Homo sapiens
Excerpt: as §1

[3] = test system: BT-549; experiment: NCI-60 growth inhibition, BT-549; assay type: cell-based, human
Excerpt: as §1

[4] = test system: SF-539; experiment: NCI-60 growth inhibition, SF-539; assay type: cell-based, human
Excerpt: as §1

[5] = test system: OVCAR-4; experiment: NCI-60 growth inhibition, OVCAR-4; assay type: cell-based, human
Excerpt: as §1

[6] = test system: LOX IMVI; experiment: NCI-60 growth inhibition, LOX IMVI; assay type: cell-based, human; details: Melanoma LOX IMVI, 48 h
Excerpt: as §1

[7] = test system: HOP-92; experiment: NCI-60 growth inhibition, HOP-92; assay type: cell-based, human
Excerpt: as §1

[8] = test system: MOLT-4; experiment: NCI-60 growth inhibition, MOLT-4; assay type: cell-based, human
Excerpt: as §1

[9] = test system: MCF7 cells pretreated with the ROS scavenger N-Acetyl-Cysteine (NAC); experiment: Cell viability of MCF7 cells pretreated with ROS scavenger NAC; assay type: cell-based, human; details: 10 mM NAC, pre-incubation 2 hours
Description: FIG. 3 illustrates the effect of ROS on the activation of 1a-b. Cell viability assay of MCF7 cancer cells treated with varying concentrations of 1a-b in the presence of 10 mM NAC. Pre-incubation with this ROS scavenger was carried out for 2 hours. Data are presented as mean SD, n=4.
Cell Counting Kit-8 (CCK8, Dojingo) was used to carry out the cytotoxicity assessment of the prodrugs. Seeded cells were treated with varying compound concentrations for 48-72 h and the CCK8 kit was used to measure the cytotoxicity. For NAC experiments, this ROS scavenger was pre-incubated with the cells for 2 h and then co-incubated with the prodrugs for additional 48 hours unless otherwise noted.
The anticancer effects of new compounds 1a and 1b were tested using the breast cancer MCF7 cells and normal MEC1 cells (FIGS. 2A and 2B). […] These differential killing results highlight the specificity of new prodrugs 1a-1b for cancer cells over normal cells. […] To further verify the role of ROS in the drug release process, the MTT assays was performed, using MCF7 cells pretreated with the ROS scavenger N-Acetyl-Cysteine (NAC).

[10] = test system: SK-OV-3; experiment: NCI-60 growth inhibition, SK-OV-3; assay type: cell-based, human
Excerpt: as §1

[11] = test system: SNB-19; experiment: NCI-60 growth inhibition, SNB-19; assay type: cell-based, human
Excerpt: as §1

[12] = test system: SN12C; experiment: NCI-60 growth inhibition, SN12C; assay type: cell-based, human; details: Renal Cancer SN12C, 48 h
Excerpt: as §1

[13] = test system: CCRF-CEM; experiment: NCI-60 growth inhibition, CCRF-CEM; assay type: cell-based, human; details: Leukemia CCRF-CEM, 48 h
Excerpt: as §1

[14] = test system: ACHN; experiment: NCI-60 growth inhibition, ACHN; assay type: cell-based, human; details: Renal Cancer ACHN, 48 h
Excerpt: as §1

[15] = test system: SNB-75; experiment: NCI-60 growth inhibition, SNB-75; assay type: cell-based, human
Excerpt: as §1

[16] = test system: HOP-62; experiment: NCI-60 growth inhibition, HOP-62; assay type: cell-based, human
Excerpt: as §1

[17] = test system: NCI-H522; experiment: NCI-60 growth inhibition, NCI-H522; assay type: cell-based, human
Excerpt: as §1

[18] = test system: A498; experiment: NCI-60 growth inhibition, A498; assay type: cell-based, human
Excerpt: as §1

[19] = test system: KM12; experiment: NCI-60 growth inhibition, KM12; assay type: cell-based, human
Excerpt: as §1

[20] = test system: MDA-MB-231/ATCC; experiment: NCI-60 growth inhibition, MDA-MB-231/ATCC; assay type: cell-based, human; details: Breast Cancer MDA-MB-231/ATCC, 48 h
Excerpt: as §1

[21] = test system: UACC-257; experiment: NCI-60 growth inhibition, UACC-257; assay type: cell-based, human
Excerpt: as §1

[22] = test system: SK-MEL-2; experiment: NCI-60 growth inhibition, SK-MEL-2; assay type: cell-based, human
Excerpt: as §1

[23] = test system: U251; experiment: NCI-60 growth inhibition, U251; assay type: cell-based, human
Excerpt: as §1

[24] = test system: SK-MEL-5; experiment: NCI-60 growth inhibition, SK-MEL-5; assay type: cell-based, human
Excerpt: as §1

[25] = test system: SF-268; experiment: NCI-60 growth inhibition, SF-268; assay type: cell-based, human
Excerpt: as §1

[26] = test system: A549/ATCC; experiment: NCI-60 growth inhibition, A549/ATCC; assay type: cell-based, human; details: Non-Small Cell lung Cancer A549/ATCC, 48 h
Excerpt: as §1

[27] = test system: NCI-H460; experiment: NCI-60 growth inhibition, NCI-H460; assay type: cell-based, human
Excerpt: as §1

[28] = test system: MALME-3M; experiment: NCI-60 growth inhibition, MALME-3M; assay type: cell-based, human; details: Melanoma MALME-3M, 48 h
Excerpt: as §1

## CC1(C)OB(c2ccc(Cn3cc(F)c(=O)[nH]c3=O)cc2)OC1(C)C [Compound 1a, 5-Fluoro-1-(4-(4,4,5,5-tetramethyl-1,3,2-dioxaborolan-2-yl)benzyl)pyrimidine-2,4(1H,3H)-dione]
[1]; Homo sapiens, Leukemia RPMI-8226, 48 h
  inhibition at 50 µM: 32%
[2]; lung cancer NCI-H522, melanoma MDA-MB-435, ovarian cancer OVCAR-3, breast cancer MCF7 and MDA-MB-468 cells, read-out: most significant inhibition
  inhibition at 50 µM: 81 to 96%
[2]; most cell lines of the NCI-60 panel, read-out: growth inhibition for most tested cell lines
  inhibition at 50 µM: > 50%
[3]; Homo sapiens, Breast Cancer BT-549, 48 h
  inhibition at 50 µM: 60%
[4]; Homo sapiens, CNS Cancer SF-539, 48 h
  inhibition at 50 µM: 39%
[5]; Homo sapiens, Ovarian Cancer OVCAR-4, 48 h
  inhibition at 50 µM: 30%
[6]; Homo sapiens
  inhibition at 50 µM: 47%
[7]; Homo sapiens, Non-Small Cell lung Cancer HOP-92, 48 h
  inhibition at 50 µM: 67%
[8]; Homo sapiens, Leukemia MOLT-4, 48 h
  inhibition at 50 µM: 45%
[9]
  anticancer effects upon pretreatment of NAC: decreased significantly
[10]; Homo sapiens, Ovarian Cancer SK-OV-3, 48 h
  inhibition at 50 µM: 31%
[11]; Homo sapiens, CNS Cancer SNB-19, 48 h
  inhibition at 50 µM: 29%
[12]; Homo sapiens
  inhibition at 50 µM: 19%
[13]; Homo sapiens
  inhibition at 50 µM: 62%
[14]; Homo sapiens
  inhibition at 50 µM: 8%
[15]; Homo sapiens, CNS Cancer SNB-75, 48 h
  inhibition at 50 µM: 62%
[16]; Homo sapiens, Non-Small Cell lung Cancer HOP-62, 48 h
  inhibition at 50 µM: 36%
[17]; Homo sapiens, Non-Small Cell lung Cancer NCI-H522, 48 h
  inhibition at 50 µM: 90%
[18]; Homo sapiens, Renal Cancer A498, 48 h
  inhibition at 50 µM: 74%
[19]; Homo sapiens, Colon Cancer KM12, 48 h
  inhibition at 50 µM: 74%
[20]; Homo sapiens
  inhibition at 50 µM: 14%
[21]; Homo sapiens, Melanoma UACC-257, 48 h
  inhibition at 50 µM: 33%
[22]; Homo sapiens, Melanoma SK-MEL-2, 48 h
  inhibition at 50 µM: 59%
[23]; Homo sapiens, U-251, CNS Cancer U251, 48 h
  inhibition at 50 µM: 17%
[24]; Homo sapiens, Melanoma SK-MEL-5, 48 h
  inhibition at 50 µM: 61%
[25]; Homo sapiens, CNS Cancer SF-268, 48 h
  inhibition at 50 µM: 31%
[26]; Homo sapiens
  inhibition at 50 µM: 24%
[27]; Homo sapiens, Non-Small Cell lung Cancer NCI-H460, 48 h
  inhibition at 50 µM: 66%
[28]; Homo sapiens
  inhibition at 50 µM: 55%

## O=c1[nH]c(=O)n(Cc2ccc(B(O)O)cc2)cc1F [Compound 1b, (4-((5-Fluoro-2,4-dioxo-3,4-dihydropyrimidin-I(2H)-yl)methyl)phenyl)boronic acid]
[1]; Leukemia RPMI-8226, 50 μM, 48 h
  Growth Inhibition (%): 2%
[2]; most cell lines of the NCI-60 panel, 50 μM
  growth inhibition for most tested cell lines: less than 50%
[3]; Breast Cancer BT-549, 50 μM, 48 h
  Growth Inhibition (%): 30%
[4]; CNS Cancer SF-539, 50 μM, 48 h
  Growth Inhibition (%): 13%
[5]; Ovarian Cancer OVCAR-4, 50 μM, 48 h
  Growth Inhibition (%): 2%
[6]; 50 μM
  Growth Inhibition (%): 8%
[7]; Non-Small Cell lung Cancer HOP-92, 50 μM, 48 h
  Growth Inhibition (%): 35%
[8]; Leukemia MOLT-4, 50 μM, 48 h
  Growth Inhibition (%): 5%
[9]
  anticancer effects upon pretreatment of NAC: decreased significantly
[10]; Ovarian Cancer SK-OV-3, 50 μM, 48 h
  Growth Inhibition (%): 13%
[11]; CNS Cancer SNB-19, 50 μM, 48 h
  Growth Inhibition (%): 11%
[12]; 50 μM
  Growth Inhibition (%): 7%
[13]; 50 μM
  Growth Inhibition (%): 7%
[14]; 50 μM
  Growth Inhibition (%): 0%
[15]; CNS Cancer SNB-75, 50 μM, 48 h
  Growth Inhibition (%): 15%
[16]; Non-Small Cell lung Cancer HOP-62, 50 μM, 48 h
  Growth Inhibition (%): 10%
[17]; Non-Small Cell lung Cancer NCI-H522, 50 μM, 48 h
  Growth Inhibition (%): 44%
[18]; Renal Cancer A498, 50 μM, 48 h
  Growth Inhibition (%): 31%
[19]; Colon Cancer KM12, 50 μM, 48 h
  Growth Inhibition (%): 20%
[20]; 50 μM
  Growth Inhibition (%): 13%
[21]; Melanoma UACC-257, 50 μM, 48 h
  Growth Inhibition (%): 14%
[22]; Melanoma SK-MEL-2, 50 μM, 48 h
  Growth Inhibition (%): 7%
[23]; CNS Cancer U251, 50 μM, 48 h
  Growth Inhibition (%): 4%
[24]; Melanoma SK-MEL-5, 50 μM, 48 h
  Growth Inhibition (%): 10%
[25]; CNS Cancer SF-268, 50 μM, 48 h
  Growth Inhibition (%): 14%
[26]; 50 μM
  Growth Inhibition (%): 4%
[27]; Non-Small Cell lung Cancer NCI-H460, 50 μM, 48 h
  Growth Inhibition (%): 1%
[28]; 50 μM
  Growth Inhibition (%): 32%
